For ten compounds, IC50 and Ki results are on record in US9428504B2, “7-hydroxy-spiropipiperidine indolinyl antagonists of P2Y1 receptor” (BRISTOL-MYERS SQUIBB COMPANY, priority 2012, dated 2016).

Broadly, the IC50 is the concentration that inhibits the measured activity by half. The term Ki denotes the equilibrium dissociation constant of an inhibitor or competing ligand from its target.

Test [1] has as its system human platelet rich plasma (PRP). Description: ADP induced platelet aggregation assay. As to conditions: Homo sapiens, Platelet, read-out: PA IC50 (μM) @ 10 μM ADP, platelet aggregation induced by 10 μM ADP, human PRP.
Test [2] addresses cloned human P2Y1 receptors (Homo sapiens (Human), UniProt P47900). Description: Binding Assay B: Scintillation Proximity Assay (SPA) for P2Y1 binding. The following applies: SPA, [33P] 2MeS-ADP displacement; read-out: P2Y1 Ki (nM) using binding assay B. The essentials:
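Scintillation proximity readout of 0.3 nM [^33P] tracer displacement from receptor membranes (~15 fmol receptor, 1.7 μg protein). Binding ran 1 h at room temperature to completion; plates were then centrifuged and aqueous phase aspirated before counting.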

cloned human P2Y1 receptors, sequence (P47900 whole entry): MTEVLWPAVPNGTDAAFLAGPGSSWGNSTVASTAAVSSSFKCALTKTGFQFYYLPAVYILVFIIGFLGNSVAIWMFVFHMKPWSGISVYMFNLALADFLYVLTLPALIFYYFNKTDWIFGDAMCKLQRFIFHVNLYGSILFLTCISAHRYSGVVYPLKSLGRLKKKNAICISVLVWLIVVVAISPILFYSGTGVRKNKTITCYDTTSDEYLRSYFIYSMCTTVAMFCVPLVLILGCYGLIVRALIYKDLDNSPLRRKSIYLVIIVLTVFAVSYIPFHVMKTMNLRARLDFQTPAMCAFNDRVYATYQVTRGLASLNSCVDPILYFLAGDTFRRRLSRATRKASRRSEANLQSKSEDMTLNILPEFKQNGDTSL

In the case of `CC(C)(C)CN1CCC2(CC1)CN(c1ccc(C#N)cc1NC(=O)Nc1nc3ccc(F)cc3s1)c1c(O)ccc(Cl)c12` [Example 70, 1-(2-(4-Chloro-7-hydroxy-1′-neopentylspiro[indoline-3,4′-piperidine]-1-yl)-5-cyanophenyl)-3-(6-fluorobenzo[d]thiazol-2-yl)urea], the IC50 in test [1] was 1 µM. For the same compound, the Ki in test [2] came out at 29.4 nM.

In the case of `CC(C)(C)CN1CCC2(CC1)CN(c1ccccc1NC(=O)Nc1csc(Cl)n1)c1c(O)ccc(C(F)(F)F)c12` [Example 18, 1-(2-Chlorothiazol-4-yl)-3-(2-(7-hydroxy-1′-neopentyl-4-(trifluoromethyl)spiro[indoline-3,4′-piperidine]-1-yl)phenyl)urea], the IC50 in test [1] was 0.1 µM. The Ki in test [2] worked out at 6.2 nM.

As to `CC(C)(C)CN1CCC2(CC1)CN(c1ccccc1NC(=O)Nc1nc3ccc(Cl)nc3s1)c1c(O)ccc(-c3nc4cc(F)ccc4s3)c12` [Example 126, 1-(5-Chlorothiazolo[5,4-b]pyridin-2-yl)-3-(2-(4-(5-fluorobenzo[d]thiazol-2-yl)-7-hydroxy-1′-neopentylspiro[indoline-3,4′-piperidin]-1-yl)phenyl)urea], the IC50 in test [1] is 0.4 µM. Moreover, in test [2], the Ki was found to be 13.1 nM.

For `CC(C)(C)CN1CCC2(CC1)CN(c1ccccc1NC(=O)Nc1ccc(C(C)(C)C)cc1)c1c(O)ccc(C(F)(F)F)c12` [Example 11, 1-(4-tert-Butylphenyl)-3-(2-(7-hydroxy-1′-neopentyl-4-(trifluoromethyl)spiro[indoline-3,4′-piperidine]-1-yl)phenyl)urea], the IC50 in test [1] is 0.1 µM. Moreover, the Ki in test [2] is 7.9 nM.

Take `CC(C)(C)CN1CCC2(CC1)CN(c1ccccc1NC(=O)Nc1csc(Cl)n1)c1c(O)ccc(-c3nc4cc(F)ccc4s3)c12` [Example 112, 1-(2-Chlorothiazol-4-yl)-3-(2-(4-(5-fluorobenzo[d]thiazol-2-yl)-7-hydroxy-1′-neopentylspiro[indoline-3,4′-piperidin]-1-yl)phenyl)urea]: in test [1], the IC50 is 0.2 µM. For the same compound, the inhibition constant Ki in test [2] was 9.5 nM.

As for `CC(C)(C)CN1CCC2(CC1)CN(c1ccccc1NC(=O)NC1CCC(C(C)(C)C)CC1)c1c(O)ccc(C(F)(F)F)c12` (centres unmarked) [Example 27, 1-(4-tert-Butylcyclohexyl)-3-(2-(7-hydroxy-1′-neopentyl-4-(trifluoromethyl)spiro[indoline-3,4′-piperidine]-1-yl)phenyl)urea], the IC50 in test [1] was 0.7 µM. Also, the inhibition constant (Ki) in test [2] was 9.6 nM.

Regarding `CC(C)CN1CCC(c2ccc(NC(=O)Nc3ccccc3N3CC4(CCN(CC(C)(C)C)CC4)c4c(Cl)c(F)cc(O)c43)cc2)CC1` [Example 105, 1-(2-(4-Chloro-5-fluoro-7-hydroxy-1′-neopentylspiro [indoline-3,4′-piperidine]-1-yl)phenyl)-3-(4-(1-isobutylpiperidin-4-yl)phenyl)urea], the IC50 in test [1] is 1.1 µM. Also, the Ki in test [2] is 12.7 nM.

Regarding `CC(C)(C)CN1CCC2(CC1)CN(c1ccccc1NC(=O)Nc1nc3ccc(F)nc3s1)c1c(O)ccc(F)c12` [Example 174, 1-(2-(4-Fluoro-7-hydroxy-1′-neopentylspiro[indoline-3,4′-piperidine]-1-yl)phenyl)-3-(5-fluorothiazolo[5,4-b]pyridin-2-yl)urea], the IC50 in test [1] amounted to 0.2 µM. Moreover, the inhibitory constant (Ki) in test [2] turned out to be 7 nM.

Regarding `CC(C)(C)CN1CCC2(CC1)CN(c1ccccc1NC(=O)Nc1nc3ccc(Cl)nc3s1)c1c(O)cc(F)c(-c3ccc(Cl)cc3)c12` [Example 164, 1-(2-(4-(4-Chlorophenyl)-5-fluoro-7-hydroxy-1′-neopentylspiro[indoline-3,4′-piperidin]-1-yl)phenyl)-3-(5-chlorothiazolo[5,4-b]pyridin-2-yl)urea], the IC50 in test [1] stood at 0.6 µM. Moreover, the Ki in test [2] came to 24.9 nM.

For `Cc1nc(NC(=O)Nc2ccccc2N2CC3(CCN(CC(C)(C)C)CC3)c3c(C(F)(F)F)ccc(O)c32)cs1` [Example 25, 1-(2-(7-Hydroxy-1′-neopentyl-4-(trifluoromethyl)spiro[indoline-3,4′-piperidine]-1-yl)phenyl)-3-(2-methylthiazol-4-yl)urea], the IC50 in test [1] came to 0.1 µM. The inhibition constant Ki in test [2] worked out at 4.9 nM.
